Experiments:
Format in all cases: in vivo
Design in all cases: key: 0 is no effect; 10 is complete control
[1] = system: purple nutsedge (Cyperus rotundus); experiment: Test B pre-/postemergence
Outline: (§1)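 Compounds in a surfactant-containing, non-phytotoxic solvent blend are applied to freshly planted seed (preemergence) and, concurrently, to seedlings of 2 to 18 cm at 1–4 leaves (postemergence). Plants stay in the greenhouse twelve to sixteen days and are then scored visually from 0 (no effect) to 10 (complete control).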

wild oat (Avena fatua) = experiment: Test B pre-/postemergence
Outline: as §1

[2] = system: bamyardgrass (Echinochloa crus-galli); experiment: Test B flood test
Outline: (§2)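 Read-out is a visual response score from 0 (no effect) to 10 (complete control), assigned by comparison with untreated controls. Treatment was applied at the 2-leaf stage, and plants stayed in the greenhouse for twelve to sixteen days before scoring.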

[3] = system: duck salad (Heteranthera limosa); experiment: Test B flood test
Outline: as §2

rice (Oryza sativa) = experiment: Test B flood test
Outline: as §2

[4] = system: smallflower flatsedge (Cyperus difformis); experiment: Test B flood test
Outline: as §2

[5] = Rate 62 g/ha, Postemergence (flood test)
[6] = Rate 125 g/ha, Postemergence, flood test
[7] = Rate 250 g/ha, Postemergence (flood test species)
[8] = Rate 500 g/ha, Postemergence (flood test species)
[9] = Rate 125 g/ha, Postemergence section (flood test species)
[10] = Preemergence, Rate 62 g/ha, scale of 0 to 10

Structure (SMILES) | Plant response rating, Nutsedge ([1]; Rate 62 g/ha, Postemergence) | Nutsedge plant response rating ([1]; Rate 62 g/ha, Preemergence) | Plant response rating, Nutsedge ([1]; Rate 250 g/ha, Postemergence) | Plant response rating, Nutsedge ([1]; Rate 250 g/ha, Preemergence) | Plant response rating, Nutsedge ([1]; Rate 500 g/ha, Preemergence) | Wild oats plant response rating (wild oat (Avena fatua); Rate 62 g/ha, Preemergence) | Plant response rating, Wild oats (wild oat (Avena fatua); Rate 250 g/ha, Postemergence) | Plant response rating, Wild oats (wild oat (Avena fatua); Rate 250 g/ha, Preemergence) | Plant response rating, Wild oats (wild oat (Avena fatua); Rate 500 g/ha, Postemergence) | Plant response rating, Wild oats (wild oat (Avena fatua); Rate 500 g/ha, Preemergence) | Plant response rating, Barnyardgrass [2, 5] | Plant response rating, Barnyardgrass [2, 6] | Plant response rating, Barnyardgrass [2, 7] | Plant response rating, Barnyardgrass [2, 8] | Plant response rating, Ducksalad [3, 5] | Plant response rating, Ducksalad [3, 7] | Plant response rating, Rice (rice (Oryza sativa); [5]) | Plant response rating, Rice (rice (Oryza sativa); [7]) | Plant response rating, S. Flatsedge [4, 5] | Plant response rating, S. Flatsedge [4, 7] | also measured
Cc1cnc(-c2ccc(C(F)(F)F)cc2)nc1Cn1cnc(C(F)(F)F)c1 [Compound 10] | 0 | 0 | 0 | 0 | 0 | 0 | 2 | 2 | 3 | 4 | 1 | 2 | 3 | 4 | 1 | 3 | 0 | 2 | 6 | 9 | Plant response rating, Nutsedge ([1]; Rate 125 g/ha, Postemergence): 0; Nutsedge plant response rating ([1]; Rate 125 g/ha, Preemergence): 0; Plant response rating, Nutsedge ([1]; Rate 500 g/ha, Postemergence): 3; Plant response rating, Wild oats (wild oat (Avena fatua); Rate 62 g/ha, Postemergence): 2; Plant response rating, Wild oats (wild oat (Avena fatua); Rate 125 g/ha, Postemergence): 2; Wild oats plant response rating (wild oat (Avena fatua); Rate 125 g/ha, Preemergence): 1; Plant response rating, Ducksalad [3, 6]: 1; Plant response rating, Ducksalad [3, 8]: 5; Plant response rating, Rice (rice (Oryza sativa); [6]): 2; Plant response rating, Rice (rice (Oryza sativa); [8]): 3; Plant response rating, S. Flatsedge [4, 6]: 9; Plant response rating, S. Flatsedge [4, 8]: 9
Cc1cnc(-c2ccc(C(F)(F)F)cc2)nc1Cn1ccc(C(F)(F)C(F)(F)F)n1 [Compound 14] | 0 | 0 | 0 | 0 | 0 | 0 | 3 | 0 | 3 | 2 | 4 | 5 | 5 | 6 | 2 | 2 | 4 | 5 | 8 | 8 | Plant response rating, Nutsedge ([1]; Rate 125 g/ha, Postemergence): 0; Nutsedge plant response rating ([1]; Rate 125 g/ha, Preemergence): 0; Plant response rating, Nutsedge ([1]; Rate 500 g/ha, Postemergence): 0; Plant response rating, Wild oats (wild oat (Avena fatua); Rate 62 g/ha, Postemergence): 0; Plant response rating, Wild oats (wild oat (Avena fatua); Rate 125 g/ha, Postemergence): 1; Wild oats plant response rating (wild oat (Avena fatua); Rate 125 g/ha, Preemergence): 0; Plant response rating, Ducksalad [3, 6]: 2; Plant response rating, Ducksalad [3, 8]: 3; Plant response rating, Rice (rice (Oryza sativa); [6]): 4; Plant response rating, Rice (rice (Oryza sativa); [8]): 5; Plant response rating, S. Flatsedge [4, 6]: 8; Plant response rating, S. Flatsedge [4, 8]: 9
Cc1cnc(-c2ccc(OC(F)(F)F)cc2)nc1Cc1cccc(C(F)(F)F)c1 [Compound 16] | 0 | 0 | 0 | 0 | 0 | 0 | 1 | 2 | 1 | 3 | 2 | 3 | 4 | 4 | 0 | 1 | 1 | 3 | 1 | 2 | Plant response rating, Nutsedge ([1]; Rate 125 g/ha, Postemergence): 0; Nutsedge plant response rating ([1]; Rate 125 g/ha, Preemergence): 0; Plant response rating, Nutsedge ([1]; Rate 500 g/ha, Postemergence): 1; Plant response rating, Wild oats (wild oat (Avena fatua); Rate 62 g/ha, Postemergence): 0; Plant response rating, Wild oats (wild oat (Avena fatua); Rate 125 g/ha, Postemergence): 0; Wild oats plant response rating (wild oat (Avena fatua); Rate 125 g/ha, Preemergence): 1; Plant response rating, Ducksalad [3, 6]: 0; Plant response rating, Ducksalad [3, 8]: 2; Plant response rating, Rice (rice (Oryza sativa); [6]): 1; Plant response rating, Rice (rice (Oryza sativa); [8]): 4; Plant response rating, S. Flatsedge [4, 6]: 2; Plant response rating, S. Flatsedge [4, 8]: 3
CCc1cnc(-c2ccc(C(F)(F)F)cc2)nc1Cc1cccc(C(F)(F)F)c1 [Compound 22] | 0 | 0 |  |  |  | 7 | 8 | 9 |  |  | 4 | 5 | 6 |  | 3 | 6 | 3 | 5 | 3 | 9 | Plant response rating, Nutsedge ([1]; Rate 125 g/ha, Postemergence): 0; Nutsedge plant response rating ([1]; Rate 125 g/ha, Preemergence): 1; Plant response rating, Wild oats (wild oat (Avena fatua); Rate 62 g/ha, Postemergence): 5; Plant response rating, Wild oats (wild oat (Avena fatua); Rate 125 g/ha, Postemergence): 6; Wild oats plant response rating (wild oat (Avena fatua); Rate 125 g/ha, Preemergence): 8; Plant response rating, Ducksalad [3, 6]: 4; Plant response rating, Rice (rice (Oryza sativa); [6]): 4; Plant response rating, S. Flatsedge [4, 6]: 8
Cc1cnc(-n2cnc(C(F)(F)F)c2)nc1Cc1cccc(C(F)(F)F)c1 [Compound 44] | 1 | 2 | 3 |  |  | 6 | 5 |  |  |  | 3 | 4 | 4 |  | 4 | 9 | 5 | 7 | 9 | 9 | Nutsedge plant response rating ([1]; Rate 125 g/ha, Postemergence): 2; Wild oats plant response rating (wild oat (Avena fatua); Rate 62 g/ha, Postemergence): 4; Wild oats plant response rating (wild oat (Avena fatua); Rate 125 g/ha, Postemergence): 4; Plant response rating, Wild oats (wild oat (Avena fatua); Rate 125 g/ha, Preemergence): 7; Plant response rating, Wild oats (wild oat (Avena fatua); Rate 250 g/ha, Postemergence (so in the source)): 9; Plant response rating, Ducksalad [3, 6]: 7; Rice plant response rating (rice (Oryza sativa); [9]): 6; S. Flatsedge plant response rating [4, 9]: 9
Cc1cnc(-n2cnc(C(F)(F)F)n2)nc1Cn1ccc(C(F)(F)F)n1 [Compound 51] | 7 | 3 |  |  |  | 4 | 9 | 8 |  |  | 5 |  | 7 |  | 8 | 9 | 3 | 8 | 9 | 9 | Plant response rating, Nutsedge ([1]; Rate 125 g/ha, Preemergence): 9; Wild oats plant response rating (wild oat (Avena fatua); Rate 62 g/ha, Postemergence): 8; Wild oats plant response rating (wild oat (Avena fatua); Rate 125 g/ha, Postemergence): 9; Plant response rating, Wild oats (wild oat (Avena fatua); Rate 125 g/ha, Preemergence): 7; Barnyardgrass plant response rating [2, 9]: 6; Ducksalad plant response rating [3, 9]: 9; Rice plant response rating (rice (Oryza sativa); [9]): 5; S. Flatsedge plant response rating [4, 9]: 9
Cc1cnc(-c2ccc(C(F)(F)F)cc2)nc1Cn1ccc(C#N)n1 [Compound 53] |  |  | 0 | 0 | 0 |  | 1 | 1 | 2 | 1 |  |  | 2 | 2 |  | 5 |  | 1 |  | 9 | Plant response rating, Nutsedge [1, 10]: 0; Nutsedge plant response rating ([1]; Rate 62 g/ha, Postemergence): 0; Nutsedge plant response rating ([1]; Rate 125 g/ha, Postemergence): 0; Plant response rating, Nutsedge ([1]; Rate 125 g/ha, Preemergence): 0; Plant response rating, Wild oats (wild oat (Avena fatua); [10]): 0; Wild oats plant response rating (wild oat (Avena fatua); Rate 62 g/ha, Postemergence): 1; Wild oats plant response rating (wild oat (Avena fatua); Rate 125 g/ha, Postemergence): 1; Plant response rating, Wild oats (wild oat (Avena fatua); Rate 125 g/ha, Preemergence): 0; Barnyardgrass plant response rating [2, 5]: 1; Barnyardgrass plant response rating [2, 9]: 2; Ducksalad plant response rating [3, 5]: 0; Ducksalad plant response rating [3, 9]: 2; Plant response rating, Ducksalad [3, 8]: 7; Rice plant response rating (rice (Oryza sativa); [5]): 1; Rice plant response rating (rice (Oryza sativa); [9]): 1; Plant response rating, Rice (rice (Oryza sativa); [8]): 2; S. Flatsedge plant response rating [4, 5]: 5; S. Flatsedge plant response rating [4, 9]: 8; Plant response rating, S. Flatsedge [4, 8]: 9
Cc1cnc(-c2ccc(C(F)(F)F)cc2)nc1Cn1cc(Br)cn1 [Compound 54] |  |  | 0 | 0 | 0 |  | 3 | 3 | 3 | 4 |  |  | 3 | 4 |  | 1 |  | 3 |  | 9 | Plant response rating, Nutsedge [1, 10]: 0; Nutsedge plant response rating ([1]; Rate 62 g/ha, Postemergence): 0; Nutsedge plant response rating ([1]; Rate 125 g/ha, Postemergence): 0; Plant response rating, Nutsedge ([1]; Rate 125 g/ha, Preemergence): 0; Plant response rating, Nutsedge ([1]; Rate 500 g/ha, Postemergence): 0; Plant response rating, Wild oats (wild oat (Avena fatua); [10]): 0; Wild oats plant response rating (wild oat (Avena fatua); Rate 62 g/ha, Postemergence): 1; Wild oats plant response rating (wild oat (Avena fatua); Rate 125 g/ha, Postemergence): 2; Plant response rating, Wild oats (wild oat (Avena fatua); Rate 125 g/ha, Preemergence): 1; Barnyardgrass plant response rating [2, 5]: 2; Barnyardgrass plant response rating [2, 9]: 3; Ducksalad plant response rating [3, 5]: 0; Ducksalad plant response rating [3, 9]: 0; Plant response rating, Ducksalad [3, 8]: 3; Rice plant response rating (rice (Oryza sativa); [5]): 1; Rice plant response rating (rice (Oryza sativa); [9]): 2; Plant response rating, Rice (rice (Oryza sativa); [8]): 4; S. Flatsedge plant response rating [4, 5]: 6; S. Flatsedge plant response rating [4, 9]: 8; Plant response rating, S. Flatsedge [4, 8]: 9

— patent US6525001B1, “Substituted pyrimidine and pyridine herbicides” (Mid-American Commercialization Corporation, priority 1997, dated 2003)
